How the values were obtained:
Experiment in all cases: relative viability (nuclei count vs DMSO), 5 days (fraction); higher = more cells survive
NCI-H1993 = tested on: NCI-H1993
In short: (§1)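 Lung cancer cell lines in 1536-well plates got either a single drug or a fixed anchor-drug dose together with five library-drug doses (not always all listed) in √10 steps, by pin tool, on the day after seeding. Nuclei were counted after 5 days, and relative viability is the treated-to-vehicle ratio of nuclei counts. Values are medians of duplicate plates.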

BEN = tested on: BEN
In short: as §1

NCI-H2087 = tested on: NCI-H2087
In short: as §1

NCI-H1355 = tested on: NCI-H1355
In short: as §1

LOU-NH91 = tested on: LOU-NH91
In short: as §1

NCI-H1437 = tested on: NCI-H1437
In short: as §1

NCI-H2342 = tested on: NCI-H2342
In short: as §1

NCI-H661 = tested on: NCI-H661
In short: as §1

NCI-H2170 = tested on: NCI-H2170
In short: as §1

NCI-H1395 = tested on: NCI-H1395
In short: as §1

NCI-H2405 = tested on: NCI-H2405
In short: as §1

For `Nc1ccn([C@@H]2O[C@H](CO)[C@@H](O)[C@@H]2O)c(=O)n1` [Cytarabine] + Nc1ncn([C@H]2C[C@H](O)[C@@H](CO)O2)c(=O)n1 [Decitabine] (partner 2 µM), the relative viability (NCI-H1993; first compound 0.01581 µM) was 0.441, the relative viability (NCI-H1993; first compound 0.05 µM) was 0.516 and the relative viability (NCI-H1993; first compound 0.1581 µM) was 0.471. It also gave a relative viability (NCI-H1993; first compound 0.5 µM) of 0.206, a relative viability (BEN; first compound 0.005 µM) of 0.675 and a relative viability (BEN; first compound 0.01581 µM) of 0.558. For the same compound, the relative viability (BEN; first compound 0.05 µM) was 0.43, the relative viability (BEN; first compound 0.1581 µM) was 0.345 and the relative viability (BEN; first compound 0.5 µM) was 0.31. For the same compound, the relative viability (NCI-H2087; first compound 0.005 µM) was 0.316, the relative viability (NCI-H2087; first compound 0.01581 µM) was 0.225 and the relative viability (NCI-H2087; first compound 0.05 µM) was 0.303. It also gave a relative viability (NCI-H2087; first compound 0.1581 µM) of 0.109, a relative viability (NCI-H2087; first compound 0.5 µM) of 0.133 and a relative viability (NCI-H1355; first compound 0.005 µM) of 0.349. The relative viability (NCI-H1355; first compound 0.01581 µM) was 0.332, the relative viability (NCI-H1355; first compound 0.05 µM) was 0.337 and the relative viability (NCI-H1355; first compound 0.1581 µM) was 0.242. For the same compound, the relative viability (NCI-H1355; first compound 0.5 µM) was 0.255, the relative viability (LOU-NH91; first compound 0.005 µM) was 0.751 and the relative viability (LOU-NH91; first compound 0.01581 µM) was 0.742. For the same compound, the relative viability (LOU-NH91; first compound 0.05 µM) was 0.696, the relative viability (LOU-NH91; first compound 0.1581 µM) was 0.545 and the relative viability (LOU-NH91; first compound 0.5 µM) was 0.491. The relative viability (NCI-H1437; first compound 0.005 µM) was 0.498, the relative viability (NCI-H1437; first compound 0.01581 µM) was 0.442 and the relative viability (NCI-H1437; first compound 0.05 µM) was 0.48. For the same compound, the relative viability (NCI-H1437; first compound 0.1581 µM) was 0.338, the relative viability (NCI-H1437; first compound 0.5 µM) was 0.268 and the relative viability (NCI-H2342; first compound 0.005 µM) was 0.712. It also gave a relative viability (NCI-H2342; first compound 0.01581 µM) of 0.702, a relative viability (NCI-H2342; first compound 0.05 µM) of 0.7 and a relative viability (NCI-H2342; first compound 0.1581 µM) of 0.482. For the same compound, the relative viability (NCI-H2342; first compound 0.5 µM) was 0.483, the relative viability (NCI-H661; first compound 0.005 µM) was 0.556 and the relative viability (NCI-H661; first compound 0.01581 µM) was 0.509. It also gave a relative viability (NCI-H661; first compound 0.05 µM) of 0.519, a relative viability (NCI-H661; first compound 0.1581 µM) of 0.422 and a relative viability (NCI-H661; first compound 0.5 µM) of 0.295. For the same compound, the relative viability (NCI-H2170; first compound 0.005 µM) was 0.393, the relative viability (NCI-H2170; first compound 0.01581 µM) was 0.346 and the relative viability (NCI-H2170; first compound 0.05 µM) was 0.355. The relative viability (NCI-H2170; first compound 0.1581 µM) was 0.254, the relative viability (NCI-H2170; first compound 0.5 µM) was 0.241 and the relative viability (NCI-H1395; first compound 0.005 µM) was 0.634. The relative viability (NCI-H1395; first compound 0.01581 µM) was 0.688, the relative viability (NCI-H1395; first compound 0.05 µM) was 0.529 and the relative viability (NCI-H1395; first compound 0.1581 µM) was 0.368. For the same compound, the relative viability (NCI-H1395; first compound 0.5 µM) was 0.364, the relative viability (NCI-H2405; first compound 0.005 µM) was 0.666 and the relative viability (NCI-H2405; first compound 0.01581 µM) was 0.569. It also gave a relative viability (NCI-H2405; first compound 0.05 µM) of 0.503, a relative viability (NCI-H2405; first compound 0.1581 µM) of 0.342 and a relative viability (NCI-H2405; first compound 0.5 µM) of 0.321.

Source: the supplement of paper PMC10307832
